From patent publication US20100240767A1, “Melanogenesis inhibitiuon by 3,5-dimethoxy-4'-hydroxystilbenes and cosmeceutical compositions thereof” (priority 2009, published 2010)
Values after ≈ are worked out from the molar mass of the structure shown.

Tests used:
mushroom tyrosinase = mushroom tyrosinase inhibitory activity; type: biochemical; conditions: 400 U/ml mushroom tyrosinase, 3.53 mM L-tyrosine substrate, absorbance 492 nm at 10th minute
Method: The mushroom tyrosinase inhibitory activity of 3,5-dimethoxy-4′-hydroxystilbene was studied in a micro plate by incubating varying concentrations of the sample with 400 U/ml of mushroom tyrosinase and then by the addition of 3.53 mM of L-tyrosine substrate. The absorbance at the 10th minute of the reaction was read in a Fluostar Optima micro plate reader at 492 nm.

[1] = system: B16F1 mouse melanoma cell line; test: melanogenesis inhibition in MSH-induced B16F1 mouse melanoma cell line; type: cell-based
Method: 3,5-dimethoxy-4′-hydroxystilbene was studied for melanogenesis inhibition in B16F1 mouse melanoma cell line. B16F1 cells were induced with 0.5 nM MSH (Melanocyte stimulating hormone) and then treated with varying concentrations of the sample. Sample treatment was given thrice after every 72 hrs. On the 9th day of treatment, the melanin from the cells was extracted with 1N NaOH and the absorbance was read at 405 nm in a Fluostar Optima micro plate reader.

[2] = system: Swiss 3T3 mouse fibroblast cells; test: UV protection in Swiss 3T3 mouse fibroblast cells (SRB viability); type: cell-based; conditions: UV A (0.5 J/cm2) and UV B (0.05 J/cm2), 72 hours incubation, SRB staining
Method: 3,5-dimethoxy-4′-hydroxystilbene was studied for UV protection in Swiss 3T3 mouse fibroblast cells. Swiss 3T3 fibroblast cell monolayers were exposed to UV A (0.5 J/cm2) and UV B (0.05 J/cm2) in the presence and absence of sample treatment at varying concentrations. After UV exposure, the cells were incubated in CO2 incubator for 72 hours and the cell viability was determined by SRB (Sulphorhodomine B) dye staining. The UV protection is determined as the enhanced percentage of viable sample treated cells as compared to the untreated cells after UV exposure.

inhibition of mushroom tyrosinase IC50 (mushroom tyrosinase): 7 mg/L | IC50 ([1]; Mus musculus, B16-F1, B16F1 cells induced with 0.5 nM MSH, treated thrice every 72 hrs, melanin read at 405 nm on 9th day): 0.5 mg/L (≈ 1.95 µM)
Structure (SMILES): COc1cc(/C=C/c2ccc(O)cc2)cc(OC)c1 [3,5-dimethoxy-4′-hydroxystilbene]
melanogenesis inhibition potential relative to Glabridin ([1]; times higher potential than Glabridin, B16F1 cells): about 6 times | UV protection (enhanced percentage of viable treated cells as compared to the untreated cells after UV exposure) [2]: 32%
